Laboratory results as given in ChEMBL document CHEMBL1136098, “Semisynthetic preparation of amentoflavone: A negative modulator at GABA(A) receptors” (Bioorg Med Chem Lett, 2003).
pEC50, pIC50, pKi: −log10 of the molar value.

What was measured:
[1] = target: GABA-A receptor; anion channel; assay: Binding affinity for GABA-A benzodiazepine receptor; type: protein-complex assay
[2] = target: T1, GABA-A receptor; alpha-1/beta-2/gamma-2 (Homo sapiens, UniProt P14867+P18507+P47870); assay: Effective concentration against human recombinant GABA-A receptor alpha-1-beta-2-gamma-2 subunits expressed in Xenopus oocytes; type: cell-based, Oocyte
T1 sequence (P14867 whole entry): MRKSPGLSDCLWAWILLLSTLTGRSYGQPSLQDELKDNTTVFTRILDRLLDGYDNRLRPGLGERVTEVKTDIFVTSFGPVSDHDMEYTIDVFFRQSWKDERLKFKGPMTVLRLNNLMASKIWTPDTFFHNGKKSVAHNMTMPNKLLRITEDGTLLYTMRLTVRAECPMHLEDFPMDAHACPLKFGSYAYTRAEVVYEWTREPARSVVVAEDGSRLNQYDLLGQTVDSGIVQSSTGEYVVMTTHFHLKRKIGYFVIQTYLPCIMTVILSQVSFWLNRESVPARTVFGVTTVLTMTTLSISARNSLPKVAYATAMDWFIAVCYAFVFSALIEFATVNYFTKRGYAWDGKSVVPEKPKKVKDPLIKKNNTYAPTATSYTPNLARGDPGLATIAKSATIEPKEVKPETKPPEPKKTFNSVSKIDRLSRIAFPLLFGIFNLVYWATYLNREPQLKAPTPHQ
T1 sequence (P47870 whole entry): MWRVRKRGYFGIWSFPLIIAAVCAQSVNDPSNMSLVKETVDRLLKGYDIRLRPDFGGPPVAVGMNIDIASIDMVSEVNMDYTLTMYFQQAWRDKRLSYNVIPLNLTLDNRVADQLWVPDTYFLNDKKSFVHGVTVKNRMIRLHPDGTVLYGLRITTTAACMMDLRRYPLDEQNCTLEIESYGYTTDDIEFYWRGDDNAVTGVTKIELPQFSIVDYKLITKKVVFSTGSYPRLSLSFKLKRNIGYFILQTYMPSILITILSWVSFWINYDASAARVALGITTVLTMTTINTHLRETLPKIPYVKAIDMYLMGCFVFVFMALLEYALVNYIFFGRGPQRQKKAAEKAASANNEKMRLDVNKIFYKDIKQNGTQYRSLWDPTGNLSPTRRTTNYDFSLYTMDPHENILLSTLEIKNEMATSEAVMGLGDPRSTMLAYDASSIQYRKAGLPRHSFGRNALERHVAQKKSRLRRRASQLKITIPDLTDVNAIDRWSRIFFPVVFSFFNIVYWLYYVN
T1 sequence (P18507 whole entry): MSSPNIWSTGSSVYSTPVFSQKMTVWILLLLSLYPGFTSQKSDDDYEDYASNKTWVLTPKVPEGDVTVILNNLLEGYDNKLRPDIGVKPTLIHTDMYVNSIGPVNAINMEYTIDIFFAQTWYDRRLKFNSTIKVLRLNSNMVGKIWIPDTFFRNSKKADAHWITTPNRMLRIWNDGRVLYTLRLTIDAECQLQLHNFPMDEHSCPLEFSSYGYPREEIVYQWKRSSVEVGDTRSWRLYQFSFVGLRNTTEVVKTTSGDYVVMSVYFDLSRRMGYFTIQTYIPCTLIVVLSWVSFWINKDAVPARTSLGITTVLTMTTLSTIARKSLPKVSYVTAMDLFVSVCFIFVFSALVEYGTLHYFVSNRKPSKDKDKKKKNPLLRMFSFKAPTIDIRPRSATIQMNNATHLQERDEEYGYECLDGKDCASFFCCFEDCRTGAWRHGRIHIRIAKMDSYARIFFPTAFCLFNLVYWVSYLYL

[3] = target: GABA-A receptor; anion channel; assay: Binding affinity for human cloned GABA-A benzodiazepine receptor; type: protein-complex assay
[4] = target: 5-hydroxytryptamine receptor 1D (Sus scrofa, UniProt P79400); assay: Binding affinity (in vitro) against 5-hydroxytryptamine 1D receptor alpha using radio-ligand binding assay
[5] = target: Delta-type opioid receptor (Sus scrofa, UniProt P79291); assay: Binding affinity (in vitro) against Opioid receptor delta 1 using radio-ligand binding assay
[6] = target: GABA-A receptor; anion channel; assay: Inhibition of [3H]flunitrazepam binding to rat brain GABA-A benzodiazepine receptor
[7] = target: D(3) dopamine receptor (Homo sapiens, UniProt P35462); assay: Binding affinity (in vitro) against Dopamine receptor D3 using radio-ligand binding assay; design: species or system Sus scrofa
D(3) dopamine receptor, sequence (P35462 whole entry): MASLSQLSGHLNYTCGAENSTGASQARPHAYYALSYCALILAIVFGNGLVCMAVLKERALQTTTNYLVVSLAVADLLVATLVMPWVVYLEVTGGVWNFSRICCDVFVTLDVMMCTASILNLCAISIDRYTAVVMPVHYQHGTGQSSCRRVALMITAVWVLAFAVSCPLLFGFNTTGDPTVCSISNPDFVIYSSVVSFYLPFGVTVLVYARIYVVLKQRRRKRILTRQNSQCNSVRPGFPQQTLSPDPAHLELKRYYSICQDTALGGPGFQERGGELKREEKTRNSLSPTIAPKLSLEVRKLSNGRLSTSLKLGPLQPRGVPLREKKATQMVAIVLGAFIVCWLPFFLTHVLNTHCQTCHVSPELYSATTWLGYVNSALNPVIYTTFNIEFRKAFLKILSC

Delta-type opioid receptor, sequence (P79291 whole entry): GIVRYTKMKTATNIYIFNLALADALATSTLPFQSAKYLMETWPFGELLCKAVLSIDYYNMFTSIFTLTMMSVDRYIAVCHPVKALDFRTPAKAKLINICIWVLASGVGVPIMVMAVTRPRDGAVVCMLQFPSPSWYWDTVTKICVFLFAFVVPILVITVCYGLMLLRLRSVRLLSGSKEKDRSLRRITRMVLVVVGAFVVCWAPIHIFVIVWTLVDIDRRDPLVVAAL
5-hydroxytryptamine receptor 1D, sequence (P79400 whole entry): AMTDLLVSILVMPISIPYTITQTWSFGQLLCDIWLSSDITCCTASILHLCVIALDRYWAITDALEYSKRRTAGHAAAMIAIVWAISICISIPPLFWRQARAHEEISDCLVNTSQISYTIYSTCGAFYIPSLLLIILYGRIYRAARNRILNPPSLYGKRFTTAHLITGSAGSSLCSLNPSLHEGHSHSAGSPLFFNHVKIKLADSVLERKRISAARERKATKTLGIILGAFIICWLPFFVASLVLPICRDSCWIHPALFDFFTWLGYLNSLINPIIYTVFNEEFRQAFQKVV

pKi [1]: 8.22 | pEC50 [2]: 5.44 | pKi [3]: 8.22 | pKi [4]: 5.39 | pKi [5]: 7.44 | pIC50 [6]: 7.83 | pKi [7]: 5.91
SMILES: O=c1cc(-c2ccc(O)c(-c3c(O)cc(O)c4c(=O)cc(-c5ccc(O)cc5)oc34)c2)oc2cc(O)cc(O)c12 [AMENTOFLAVONE]
